Two molecules from US20260297060A1, “COMPOUNDS FOR THE DEGRADATION OF MUTANT BRAF” (C4 THERAPEUTICS, INC., priority 2023, published 2026) can be followed below.

In general, T/C refers to the result in the treated group divided by that in the control group, in per cent.

Where two headings read alike, the source gives them in different places.

Holding throughout (format): in vivo, BALB/c nude mice
Data set [1] can be described thus: Example 6 pharmacokinetics assay for PKPD study (plasma, tumor, liver). The conditions noted are these: mouse, po, 10 mg/kg, single dose. Here is the method:
For the pharmacokinetic/pharmacodynamic (PKPD) study, compounds were tested in the A375 human melanoma xenografts. Known BRAF inhibitors encorafenib, and dabrafenib were used as positive controls. Encorafenib, dabrafenib, Compound 83, Compound 93, Compound 70, and Compound 54 were administered to BALB/c nude mice bearing A375 tumors on PG-D1 and dosed orally (PO) once. Encorafenib was dosed at 35 mg/kg. Dabrafenib was dosed at 100 mg/kg. Compound 83, Compound 93, Compound 70, and Compound 54 were dosed at 10 mg/kg. The plasma and tumor samples were collected at 1, 6, 12 and 24 hours, and liver samples were collected at 6 hours and 12 hours post the single dose. This study was non-GLP study.
(§1) The plasma samples were collected at predetermined time points for PK analysis. The mice were euthanized at predetermined time points post the treatment. The blood samples were collected into the 1.5 mL Eppendorf tubes containing 15 μL of 0.5 M EDTA-K2. And then the anticoagulant blood samples were centrifuged at 2,500 g at 4° C. for 15 minutes. The plasma samples were separated into 2 aliquots. The 1st was used for PK analysis, and the 2nd served as backup. The samples were stored at −80° C. before bioanalysis.
The tumor samples were collected at predetermined time points for PK and WB analysis (B-RAF and p-ERK). The tumor was dissected out and split into 3 parts. The 1st part was used for PK analysis, the 2nd part was used for WB analysis and the last one served as backup for study. The samples were transferred into pre-labeled tubes and quickly froze in liquid nitrogen within 2 minutes after dissection. The samples were stored at −80° C. before bioanalysis.
(§2) Liver samples were collected at predetermined time points for PK analysis. The left lobe of the liver was dissected out and split into 2 parts. The 1st part was used for PK analysis and the 2nd part served as the backup for the study. The samples were transferred into pre-labeled tubes and quickly froze in liquid nitrogen within 2 minutes after dissection. The samples were stored at −80° C. before bioanalysis.
For PKPD study, the harvested plasma, tumor and liver were processed for pharmacokinetics analysis by LC/MS/MS with a concentration range of 0.5-1000 ng/mL for Encorafenib and Dabrafenib in plasma, 0.05-100 ng/mL for Encorafenib and Dabrafenib in tumor, 0.2-200 ng/mL for Encorafenib and Dabrafenib in liver, 2.0-2000 ng/mL for compound 93, compound 83, compound 54 and compound 70 in liver, 50.0-50000 ng/mL for compound 83 and compound 70 in plasma, 0.5-1000 ng/mL for compound 83 and compound 70 in tumor, 1.0-2000 ng/mL for compound 93 in plasma, 10.0-20000 ng/mL for compound 54 in plasma, 0.5-500 ng/mL for compound 93 and compound 54 in tumor.

Data set [2] is described as follows: Example 6 pharmacokinetics assay for efficacy study (plasma, liver). The conditions noted are these: mouse, po, 10 mg/kg, p.o., BID × 21 days. How it is done:
(§3) For efficacy study, compounds were tested in the A375 human melanoma xenografts. Known BRAF inhibitors encorafenib, and dabrafenib were used as positive controls. Encorafenib and dabrafenib were administered to BALB/c nude mice bearing A375 tumors on PG-D1 and dosed PO daily (QD) for 3 weeks. Encorafenib was dosed at 35 mg/kg. Dabrafenib was dosed at 100 mg/kg. Compound 83, Compound 93, Compound 70, and Compound 54 were administered to BALB/c nude mice bearing A375 tumors on PG-DO and dosed PO twice per day (BID) for 3 weeks. Compound 83, Compound 93, Compound 70, and Compound 54 were dosed at 10 mg/kg.
as §1, §2
For efficacy study, the harvested plasma and liver were processed for pharmacokinetics analysis by LC/MS/MS with a concentration range of 2.00-2000 ng/mL for Encorafenib and Dabrafenib in plasma, 0.20-200 ng/mL for Encorafenib and Dabrafenib in liver, 50.0-50000 ng/mL for compound 83 and compound 70 in plasma, 20.0-20000 ng/mL for Compound 93 and Compound 54 in plasma, 5.00-5000 ng/mL for compound 93, compound 83, compound 70 and compound 54 in liver.

Data set [3] concerns A375 human melanoma xenografts. As to the kind of experiment: Example 6 efficacy study in A375 human melanoma xenografts (tumor volume, T/C, TGI). To be noted: 10 mg/kg, p.o., BID × 21 days; for T/C / TGI / Tumor Size on PG-D21: PG-D21; for Tumor Size on PG-D21 / Tumor volume: Mean ± SEM. How it is done: as §3
The A375 tumor cells were maintained in vitro in DMEM medium supplemented with […] and 1% Penicillin-Streptomycin at 37° C. in an atmosphere of 5% CO2 in air. The tumor cells were routinely subcultured twice weekly. The cells growing in an exponential growth phase were harvested and counted for tumor inoculation.
Each mouse was inoculated subcutaneously at the right flank with A375 tumor cells (5×10^6) in 0.2 mL of PBS with Matrigel (PBS: Matrigel=1:1) supplemented for tumor development. Animals were grouped for the treatment on day 16 after tumor inoculation when the average tumor volume reached 221 mm^3 for efficacy study and 386 mm^3 for PKPD study. The test articles administration and the animal numbers in each group are shown in the above experimental Tables.
Prior to the onset of drug treatment, mice were measured for tumor size in two dimensions using a caliper, and the tumor volume (mm^3) was calculated using formula V=0.5 a×b^2 where a and b are the long and short diameters of the tumor in mm, respectively. Mice were randomized into different treatment groups based on the tumor volume.
The major endpoint was to see if the tumor growth could be delayed or mice could be cured. The tumor size was then used for calculations of T/C value. The T/C value (in percent) is an indication of antitumor effectiveness; T and C are the mean volumes of the treated and control groups, respectively on specified day.
TGI was calculated for each group using the formula: TGI (%)=[1−(Ti−T0)/(Ci−C0)]×100; Ti is the average tumor volume of a treatment group on a given day, T0 is the average tumor volume of the treatment group on the day of treatment start, Ci is the average tumor volume of the vehicle control group on the same day with Ti, and C0 is the average tumor volume of the vehicle group on the day of treatment start.
A general note: Xenograft models place foreign cells or tissue in a host animal.

[4] abbreviates: liver, read-out: Concentration in Liver (mean ± SEM).
Where [5] appears, read: plasma, read-out: Concentration in Plasma (mean ± SEM).
Where [6] appears, read: tumor, read-out: Concentration in Tumor (mean ± SEM).

`CCN(C)S(=O)(=O)Nc1ccc(F)c(Oc2ccc3ncn(C4CC5(CCN(C6CCC(c7cc8c(cc7F)c(N7CCC(=O)NC7=O)nn8C)CC6F)CC5)C4)c(=O)c3c2)c1C#N` (single isomer, unassigned) [Compound 83, 6-[2-cyano-3-[[ethyl(methyl)sulfamoyl]amino]-6-fluoro-phenoxy]-3-[7-[4-[3-(2,4-dioxohexahydropyrimidin-1-yl)-5-fluoro-1-methyl-indazol-6-yl]-2-fluoro-cyclohexyl]-7-azaspiro[3.5]nonan-2-yl]-4-oxo-quinazoline]: the concentration at 6 h in data set [1] (setting [4]) worked out at 6990 ± 166 ng/g; in data set [1] (setting [5]), 10.4 ± 0.338 µg/mL; in data set [1] (setting [6]), 1820 ± 354 ng/g; in data set [2] (setting [4]), 11000 ± 1050 ng/g; in data set [2] (setting [5]), 17.1 ± 1.51 µg/mL. For the same molecule, the values for the concentration at 12 h in data set [1] (setting [4]), in data set [1] (setting [5]) and in data set [1] (setting [6]) were 1580 ± 273 ng/g, 2.42 ± 0.572 µg/mL and 751 ± 128 ng/g, respectively. In addition, the concentration at 1 h in data set [1] (setting [5]) was 20.1 ± 1.51 µg/mL; in data set [1] (setting [6]) it was 1650 ± 249 ng/g. The values for the concentration at 24 h in data set [1] (setting [5]) and in data set [1] (setting [6]) were 0.172 µg/mL and 57.6 ± 37 ng/g, respectively. Also, the T/C in data set [3] is listed as 0.7%. The TGI in data set [3] came to 110.3%. For the same molecule, the “Tumor Size on PG-D21” value in data set [3] is on record as 15 ± 1 mm^3. For the same molecule, the “Tumor volume” value in data set [3] (day 0) turned out to be 221 ± 11 mm^3; in data set [3] (day 4) it was 89 ± 11 mm^3; in data set [3] (day 7), 62 ± 7 mm^3; in data set [3] (day 11), 39 ± 3 mm^3; in data set [3] (day 14) it was 31 ± 2 mm^3; in data set [3] (day 18), 22 ± 1 mm^3. For the same molecule, the “Tumor volume” value in data set [3] (day 21) stood at 15 ± 1 mm^3.

Take `Cn1nc(N2CCC(=O)NC2=O)c2cc(F)c(C3CCC(N4CCC5(CC4)CC(n4cnc6ccc(Oc7c(F)ccc(NS(=O)(=O)C8CCCC8)c7C#N)cc6c4=O)C5)CC3)cc21` (single isomer, unassigned) [Compound 93, N-[2-cyano-3-[3-[7-[4-[3-(2,4-dioxohexahydropyrimidin-1-yl)-5-fluoro-1-methyl-indazol-6-yl]cyclohexyl]-7-azaspiro[3.5]nonan-2-yl]-4-oxo-quinazolin-6-yl]oxy-4-fluoro-phenyl]cyclopentanesulfonamide]: the concentration at 6 h in data set [1] (setting [4]) was 460 ± 32.7 ng/g; in data set [1] (setting [5]) it was 0.548 ± 0.0283 µg/mL; in data set [1] (setting [6]), 129 ± 13.6 ng/g; in data set [2] (setting [4]), 652 ± 180 ng/g; in data set [2] (setting [5]) it was 1.1 ± 0.389 µg/mL. Further, the concentration at 12 h in data set [1] (setting [4]) is 117 ± 30.2 ng/g; in data set [1] (setting [5]), 0.114 ± 0.0256 µg/mL; in data set [1] (setting [6]), 50.6 ± 14.1 ng/g. For the same molecule, the concentration at 1 h in data set [1] (setting [5]) was 2.45 ± 0.799 µg/mL; in data set [1] (setting [6]) it was 232 ± 75.6 ng/g. Moreover, the concentration at 24 h came out at 0.00285 ± 0.000408 µg/mL in data set [1] (setting [5]) and 59.5 ng/g in data set [1] (setting [6]). This molecule displayed a T/C in data set [3] of 3.3%. Also, the TGI in data set [3] amounted to 107.4%. The “Tumor Size on PG-D21” value in data set [3] worked out at 73 ± 18 mm^3. Besides, the “Tumor volume” value in data set [3] (day 0) is reported as 221 ± 9 mm^3; in data set [3] (day 4), 133 ± 6 mm^3; in data set [3] (day 7), 97 ± 6 mm^3; in data set [3] (day 11), 69 ± 5 mm^3; in data set [3] (day 14), 59 ± 5 mm^3; in data set [3] (day 18), 52 ± 4 mm^3. For the same molecule, in data set [3] (day 21), the “Tumor volume” value is on record as 73 ± 18 mm^3.
